The record followed here is US12371428B2 (Exelixis, Inc., priority 2019, dated 2025).

Where a name gives a salt, the structure may show the parent alone.

Assay [1] addresses Human MER (residues 528-999) (Homo sapiens (Human), UniProt Q12866). In words: Human Mer kinase assay, HTRF KinEase (Example C-2). Format: biochemical. The settings on record: protocol of Example C-2. The essentials: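 HTRF KinEase TK assay with MER 528-999 (1 ng/well) in enzymatic buffer plus 5 mM MgCl2 and 1 mM DTT, biotinylated peptide substrate and ATP at Km (40 μM), 3% DMSO final, 60 min at room temperature. Stopped with EDTA detection mix (SA-XL665, TK antibody-Eu3+), read at 665/620 nm after 60 min; IC50 from 10-point 4-parameter fit, normalized to DMSO and 1 μM reference.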
(In TR-FRET formats the signal depends on donor and acceptor labels being close together.)

The target in assay [2] is Human MET (residues 956-1390) (Homo sapiens (Human), UniProt P08581). The experiment in a line: Human Met kinase assay, HTRF KinEase (Example D-2). It is filed as biochemical. Particulars: protocol of Example D-2; read-out: c-Met IC50. The method, boiled down: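 HTRF KinEase assay on MET residues 956-1390 (0.1 ng/well) in buffer with 5 mM MgCl2, 1 mM DTT and 1 mM MnCl2, with biotinylated peptide substrate, ATP at Km, 10 compound concentrations and 3% DMSO final, run 40 min at room temperature. The […] signal was normalized to DMSO and to 1 μM reference compound, and IC50 came from a 4-parameter logistic fit.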
Human MET (residues 956-1390), sequence (P08581 956-1390): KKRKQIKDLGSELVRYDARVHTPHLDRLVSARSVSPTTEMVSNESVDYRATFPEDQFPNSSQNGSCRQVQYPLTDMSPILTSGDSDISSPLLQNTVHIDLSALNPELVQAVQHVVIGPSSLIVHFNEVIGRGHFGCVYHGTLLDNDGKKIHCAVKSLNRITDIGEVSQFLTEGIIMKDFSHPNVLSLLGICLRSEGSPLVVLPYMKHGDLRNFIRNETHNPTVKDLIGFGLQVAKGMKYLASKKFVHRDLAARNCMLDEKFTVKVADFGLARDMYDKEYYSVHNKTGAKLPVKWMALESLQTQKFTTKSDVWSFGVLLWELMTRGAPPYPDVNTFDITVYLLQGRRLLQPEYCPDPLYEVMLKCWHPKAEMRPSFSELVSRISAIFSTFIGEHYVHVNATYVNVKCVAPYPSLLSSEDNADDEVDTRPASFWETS

Assay [3] addresses Met (phospho-Met, HGF-stimulated PC-3 prostate cancer cells) (Homo sapiens (Human), UniProt P08581). In words: Met autophosphorylation ELISA in PC-3 cells (Example F). It is filed as cell-based. The settings on record: cellular activity; Met autophosphorylation ELISA in PC-3 cells; read-out: c-Met IC50. The essentials:
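IC50 values derive from a 4-parameter logistic fit of phospho-Met (panTyr) sandwich ELISA signals in PC-3 lysates, scaled between DMSO and reference-inhibitor wells. Cells, starved 3 h in serum-free medium, had 1 h compound exposure (8 doses, 0.3% DMSO) before 10 min stimulation with 100 ng/mL HGF.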
(In general: In an ELISA, binding on a coated surface is turned into a signal by an enzyme label.)

Assay [4] deals with Mer (phospho-Mer, MERTK-transfected 293A cells) (Homo sapiens (Human), UniProt Q12866). The experiment in a line: Mer autophosphorylation ELISA in transient transfected 293A cells (Example H). The settings on record: cellular activity; Mer autophosphorylation ELISA in transient transfected 293A cells. Format: cell-based. The essentials: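 Human MERTK transiently transfected into 293A cells; compounds as 8-point dose curve in serum-free medium (0.3% DMSO final), 1 h. Lysates assayed by phospho-Mer sandwich ELISA against phospho-Mer standard; DMSO = 100%, reference inhibitor = 0% activity; IC50 from 4-parameter logistic fit.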
Mer (phospho-Mer, MERTK-transfected 293A cells), sequence (Q12866 21-999): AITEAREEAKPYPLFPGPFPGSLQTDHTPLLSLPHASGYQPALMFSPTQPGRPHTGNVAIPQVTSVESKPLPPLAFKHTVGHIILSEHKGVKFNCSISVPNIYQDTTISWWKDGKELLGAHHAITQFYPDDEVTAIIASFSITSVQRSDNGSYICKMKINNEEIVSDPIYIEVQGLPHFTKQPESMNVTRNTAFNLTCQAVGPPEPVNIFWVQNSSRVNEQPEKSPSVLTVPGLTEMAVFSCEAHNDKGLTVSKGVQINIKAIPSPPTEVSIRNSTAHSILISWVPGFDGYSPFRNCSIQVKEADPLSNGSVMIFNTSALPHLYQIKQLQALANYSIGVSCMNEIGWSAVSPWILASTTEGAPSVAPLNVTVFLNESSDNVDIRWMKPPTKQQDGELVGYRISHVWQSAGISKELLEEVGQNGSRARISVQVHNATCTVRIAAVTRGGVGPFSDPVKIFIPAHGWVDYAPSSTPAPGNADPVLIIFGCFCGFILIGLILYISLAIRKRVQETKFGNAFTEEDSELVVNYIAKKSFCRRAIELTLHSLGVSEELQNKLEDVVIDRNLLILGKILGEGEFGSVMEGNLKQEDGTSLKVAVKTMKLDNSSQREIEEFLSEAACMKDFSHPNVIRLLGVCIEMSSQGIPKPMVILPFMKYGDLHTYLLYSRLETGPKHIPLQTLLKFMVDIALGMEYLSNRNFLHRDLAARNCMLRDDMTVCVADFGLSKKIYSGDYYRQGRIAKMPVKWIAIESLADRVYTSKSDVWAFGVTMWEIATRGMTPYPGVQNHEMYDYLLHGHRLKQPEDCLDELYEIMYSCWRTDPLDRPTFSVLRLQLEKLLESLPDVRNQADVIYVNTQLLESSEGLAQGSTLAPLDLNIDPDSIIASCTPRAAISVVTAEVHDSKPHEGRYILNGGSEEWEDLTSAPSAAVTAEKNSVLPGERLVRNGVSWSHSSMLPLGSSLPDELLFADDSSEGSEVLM

Human MER (residues 528-999), sequence (Q12866 528-999): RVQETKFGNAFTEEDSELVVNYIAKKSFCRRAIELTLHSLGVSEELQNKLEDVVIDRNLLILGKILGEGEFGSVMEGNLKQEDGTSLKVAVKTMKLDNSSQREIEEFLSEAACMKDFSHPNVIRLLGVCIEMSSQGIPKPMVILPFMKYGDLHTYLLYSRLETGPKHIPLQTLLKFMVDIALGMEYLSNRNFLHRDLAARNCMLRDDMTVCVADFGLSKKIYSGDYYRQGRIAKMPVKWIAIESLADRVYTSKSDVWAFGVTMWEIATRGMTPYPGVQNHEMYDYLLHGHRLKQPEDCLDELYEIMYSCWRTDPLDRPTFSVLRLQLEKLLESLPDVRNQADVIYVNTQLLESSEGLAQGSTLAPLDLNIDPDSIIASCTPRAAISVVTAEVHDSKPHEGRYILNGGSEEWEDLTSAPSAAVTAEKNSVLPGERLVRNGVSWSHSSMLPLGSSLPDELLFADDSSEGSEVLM
Met (phospho-Met, HGF-stimulated PC-3 prostate cancer cells), sequence (P08581 25-1390): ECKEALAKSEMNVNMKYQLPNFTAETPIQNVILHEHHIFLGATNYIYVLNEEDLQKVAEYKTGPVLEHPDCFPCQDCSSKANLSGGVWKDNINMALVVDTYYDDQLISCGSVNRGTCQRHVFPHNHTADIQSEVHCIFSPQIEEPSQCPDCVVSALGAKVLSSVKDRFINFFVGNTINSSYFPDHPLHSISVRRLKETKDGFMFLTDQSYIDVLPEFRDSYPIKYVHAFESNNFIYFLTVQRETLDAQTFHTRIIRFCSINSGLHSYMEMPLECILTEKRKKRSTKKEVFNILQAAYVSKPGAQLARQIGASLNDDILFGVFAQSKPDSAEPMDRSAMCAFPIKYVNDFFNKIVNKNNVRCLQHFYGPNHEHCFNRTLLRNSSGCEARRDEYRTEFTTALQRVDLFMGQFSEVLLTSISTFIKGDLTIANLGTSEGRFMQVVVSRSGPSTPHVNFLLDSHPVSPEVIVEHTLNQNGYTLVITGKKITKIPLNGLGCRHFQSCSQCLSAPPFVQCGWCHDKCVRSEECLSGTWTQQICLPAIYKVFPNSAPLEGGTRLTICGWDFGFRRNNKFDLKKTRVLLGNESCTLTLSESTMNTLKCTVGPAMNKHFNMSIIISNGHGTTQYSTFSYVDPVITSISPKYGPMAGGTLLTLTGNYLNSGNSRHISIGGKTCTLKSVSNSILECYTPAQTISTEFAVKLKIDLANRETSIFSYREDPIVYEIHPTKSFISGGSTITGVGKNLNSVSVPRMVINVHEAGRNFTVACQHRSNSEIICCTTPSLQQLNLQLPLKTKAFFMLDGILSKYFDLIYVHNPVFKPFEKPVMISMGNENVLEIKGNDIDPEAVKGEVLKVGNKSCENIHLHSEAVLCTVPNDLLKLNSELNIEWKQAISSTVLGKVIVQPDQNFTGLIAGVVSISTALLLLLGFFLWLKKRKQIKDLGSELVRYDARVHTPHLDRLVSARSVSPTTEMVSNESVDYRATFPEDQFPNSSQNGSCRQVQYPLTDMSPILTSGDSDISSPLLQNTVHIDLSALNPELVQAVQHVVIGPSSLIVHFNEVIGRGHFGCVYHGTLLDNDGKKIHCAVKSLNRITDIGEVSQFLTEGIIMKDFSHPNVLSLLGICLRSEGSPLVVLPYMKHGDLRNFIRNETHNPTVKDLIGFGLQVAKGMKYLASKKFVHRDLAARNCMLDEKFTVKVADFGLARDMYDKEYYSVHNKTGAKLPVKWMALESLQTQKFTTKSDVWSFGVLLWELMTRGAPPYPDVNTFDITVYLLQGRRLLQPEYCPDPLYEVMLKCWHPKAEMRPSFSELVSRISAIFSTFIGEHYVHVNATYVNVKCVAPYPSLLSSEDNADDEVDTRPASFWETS

What is called IC50 is the concentration needed to halve the response being measured. Consider `Cc1nc(C)c(-c2ccc(F)cc2)c(O)c1C(=O)Nc1ccc(Oc2ccnc3cc(C(C)C)cnc23)cc1` [Compound 598, 5-(4-Fluorophenyl)-4-hydroxy-2,6-dimethyl-N-[4-[(7-propan-2-yl-1,5-naphthyridin-4-yl)oxy]phenyl]pyridine-3-carboxamide], for which the IC50 in assay [1], in assay [2], in assay [3] and in assay [4] was below 100 nM each time.

`Cc1ncc(C(=O)Nc2ccc(Oc3ccnc4cc(-c5cnn(C(F)F)c5)cnc34)c(F)c2)c(O)c1-c1ccc(F)cc1` [Compound 610, N-[4-[[7-[1-(Difluoromethyl)pyrazol-4-yl]-1,5-naphthyridin-4-yl]oxy]-3-fluorophenyl]-5-(4-fluorophenyl)-4-hydroxy-6-methylpyridine-3-carboxamide hydrochloride]: the IC50 in assay [1], in assay [2], in assay [3] and in assay [4] was below 100 nM each time.

Turning to `Cc1ncc(C(=O)Nc2ccc(Oc3ccnc4cc(-c5cnn(C(F)F)c5)cnc34)cc2)c(O)c1-c1ccc(F)cc1` [Compound 611, N-[4-[[7-[1-(Difluoromethyl)pyrazol-4-yl]-1,5-naphthyridin-4-yl]oxy]phenyl]-5-(4-fluorophenyl)-4-hydroxy-6-methylpyridine-3-carboxamide], the IC50 in assay [1], in assay [2], in assay [3] and in assay [4] was below 100 nM each time.

Consider `Cc1nc2c(Oc3ccc(NC(=O)c4cn(C(C)C)c(C)c(-c5ccc(F)cc5)c4=O)cc3)ccnc2cc1-c1cnn(C(F)F)c1` [Compound 612, N-[4-[[7-[1-(Difluoromethyl)pyrazol-4-yl]-6-methyl-1,5-naphthyridin-4-yl]oxy]phenyl]-5-(4-fluorophenyl)-6-methyl-4-oxo-1-propan-2-ylpyridine-3-carboxamide hydrochloride], for which the IC50 was below 100 nM in assay [1], below 100 nM in assay [2], 100 to 300 nM in assay [3] and below 100 nM in assay [4].

Take `Cc1nc2c(Oc3ccc(NC(=O)c4cn(C(C)C)c(C)c(-c5ccc(F)cc5)c4=O)cc3)ccnc2cc1-c1cccnc1` [Compound 613, 5-(4-Fluorophenyl)-6-methyl-N-[4-[(6-methyl-7-pyridin-3-yl-1,5-naphthyridin-4-yl)oxy]phenyl]-4-oxo-1-propan-2-ylpyridine-3-carboxamide hydrochloride]: the IC50 in assay [1], in assay [2], in assay [3] and in assay [4] was below 100 nM in each case.

As for `Cc1nc2c(Oc3ccc(NC(=O)c4cn(C(C)C)c(C)c(-c5ccc(F)cc5)c4=O)cc3F)ccnc2cc1-c1cnn(C(F)F)c1` [Compound 614, N-[4-[[7-[1-(Difluoromethyl)pyrazol-4-yl]-6-methyl-1,5-naphthyridin-4-yl]oxy]-3-fluorophenyl]-5-(4-fluorophenyl)-6-methyl-4-oxo-1-propan-2-ylpyridine-3-carboxamide hydrochloride], the concentration for half-maximal inhibition (IC50) is below 100 nM in assay [1], below 100 nM in assay [2], 100 to 300 nM in assay [3] and below 100 nM in assay [4].

In the case of `Cc1nc2c(Oc3ccc(NC(=O)c4cnc(C)c(-c5ccc(F)cc5)c4O)cc3F)ccnc2cc1-c1cnn(C(F)F)c1` [Compound 615, N-[4-[[7-[1-(Difluoromethyl)pyrazol-4-yl]-6-methyl-1,5-naphthyridin-4-yl]oxy]-3-fluorophenyl]-5-(4-fluorophenyl)-4-hydroxy-6-methylpyridine-3-carboxamide hydrochloride], the IC50 in assay [1], in assay [2], in assay [3] and in assay [4] was below 100 nM each time.

As for `Cc1nc2c(Oc3ccc(NC(=O)c4cnc(C)c(-c5ccc(F)cc5)c4O)cc3)ccnc2cc1-c1cccnc1` [Compound 616, 5-(4-Fluorophenyl)-4-hydroxy-6-methyl-N-[4-[(6-methyl-7-pyridin-3-yl-1,5-naphthyridin-4-yl)oxy]phenyl]pyridine-3-carboxamide hydrochloride], the IC50 in assay [1] was below 100 nM; in assay [2], below 100 nM; in assay [3] it was above 300 nM; in assay [4] it was 100 to 300 nM.

In the case of `Cc1nc2c(Oc3ccc(NC(=O)c4cnc(C)c(-c5ccc(F)cc5)c4O)cc3)ccnc2cc1-c1cnn(C(F)F)c1` [Compound 617, N-[4-[[7-[1-(Difluoromethyl)pyrazol-4-yl]-6-methyl-1,5-naphthyridin-4-yl]oxy]phenyl]-5-(4-fluorophenyl)-4-hydroxy-6-methylpyridine-3-carboxamide hydrochloride], the IC50 in assay [1], in assay [2], in assay [3] and in assay [4] was below 100 nM in each case.

On to `Cc1nc2c(Oc3ccc(NC(=O)c4cnc(C)c(-c5ccc(F)cc5)c4O)cc3F)ccnc2cc1-c1cccnc1` [Compound 618, N-[3-Fluoro-4-[(6-methyl-7-pyridin-3-yl-1,5-naphthyridin-4-yl)oxy]phenyl]-5-(4-fluorophenyl)-4-hydroxy-6-methylpyridine-3-carboxamide hydrochloride], for which the IC50 in assay [1] was below 100 nM; in assay [2], below 100 nM; in assay [3] it was 100 to 300 nM; in assay [4] it was below 100 nM.

Turning to `COc1cc2nccc(Oc3ccc(NC(=O)c4cn(CCO)c(C)c(-c5ccc(F)cc5)c4=O)cc3F)c2nc1OC` [Compound 619, N-[4-[(6,7-Dimethoxy-1,5-naphthyridin-4-yl)oxy]-3-fluorophenyl]-5-(4-fluorophenyl)-1-(2-hydroxyethyl)-6-methyl-4-oxopyridine-3-carboxamide], the IC50 in assay [1], in assay [2], in assay [3] and in assay [4] was below 100 nM in each case.

Consider `Cc1nc2c(Oc3ccc(NC(=O)c4cn(C(C)C)c(C)c(-c5ccc(F)cc5)c4=O)cc3F)ccnc2cc1-c1cccnc1` [Compound 620, N-[3-Fluoro-4-[(6-methyl-7-pyridin-3-yl-1,5-naphthyridin-4-yl)oxy]phenyl]-5-(4-fluorophenyl)-6-methyl-4-oxo-1-propan-2-ylpyridine-3-carboxamide], for which the concentration for half-maximal inhibition (IC50) was below 100 nM in assay [1], below 100 nM in assay [2], 100 to 300 nM in assay [3] and below 100 nM in assay [4].

Regarding `COc1cc2ncnc(Oc3ccc(NC(=O)c4cn(C(C)C)cc(-c5ccc(F)cc5)c4=O)cc3F)c2nc1OC` [Compound 636, N-[4-(6,7-dimethoxypyrido[3,2-d]pyrimidin-4-yl)oxy-3-fluorophenyl]-5-(4-fluorophenyl)-4-oxo-1-propan-2-ylpyridine-3-carboxamide], the IC50 in assay [1], in assay [2], in assay [3] and in assay [4] was below 100 nM each time.

On to `COc1cc2ncnc(Oc3ccc(NC(=O)c4cn(-c5cnn(C)c5)cc(-c5ccc(F)cc5)c4=O)cc3F)c2nc1OC` [Compound 637, N-[4-(6,7-dimethoxyprido[3,2-d]pyrimidin-4-yl)oxy-3-fluorophenyl]-5-(4-fluorophenyl)-1-(1-methylpyrazol-4-yl)-4-oxopyridine-3-carboxamide], for which the IC50 in assay [1], in assay [2], in assay [3] and in assay [4] was below 100 nM in each case.

Take `COc1cc2c(Oc3ccc(NC(=O)c4cnc(C)c(-c5ccc(F)cc5)c4O)cc3F)ccnc2cn1` [Compound 639, N-[3-fluoro-4-[(6-methoxy-1,7-naphthyridin-4-yl)oxy]phenyl]-5-(4-fluorophenyl)-4-hydroxy-6-methylpyridine-3-carboxamide]: the half-maximal inhibitory concentration (IC50) in assay [1], in assay [2], in assay [3] and in assay [4] was below 100 nM each time.

`COc1cc2c(Oc3ccc(NC(=O)c4cn(C5CC5)c(C)c(-c5ccc(F)cc5)c4=O)cc3F)ccnc2cn1` [Compound 640, 1-cyclopropyl-N-[3-fluoro-4-[(6-methoxy-1,7-naphthyridin-4-yl)oxy]phenyl]-5-(4-fluorophenyl)-6-methyl-4-oxopyridine-3-carboxamide]: the IC50 in assay [1], in assay [2], in assay [3] and in assay [4] was below 100 nM throughout.

For the compound `Cc1ncc(C(=O)Nc2ccc(Oc3ccnc4cnc(Cl)cc34)c(F)c2)c(O)c1-c1ccc(F)cc1` [Compound 641, N-[4-[(6-chloro-1,7-naphthyridin-4-yl)oxy]-3-fluorophenyl]-5-(4-fluorophenyl)-4-hydroxy-6-methylpyridine-3-carboxamide], the IC50 in assay [1] is below 100 nM; in assay [2], 100 to 300 nM; in assay [3], below 100 nM; in assay [4], below 100 nM.
